# Assay results published in patent publication US20250213555A1, “SUBSTITUTED TETRAHYDROFURAN ANALOGS AS MODULATORS OF SODIUM CHANNELS” (VERTEX PHARMACEUTICALS INCORPORATED, priority 2021, published 2025).
# Target: human Nav 1.8 (Homo sapiens, UniProt Q9Y5Y9)
# Experiment: E-VIPR assay detecting and measuring Nav inhibition properties
# Format: cell-based
# Settings: HEK cells expressing a truncated form of human Nav 1.8; compound numbers without "*" (not marked as run in the presence of human serum); read-out: measured IC50 value in the E-VIPR Assay
# Summary of the method: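 Nav inhibition was read by E-VIPR: cells were electrically stimulated while coumarin/oxonol FRET emissions were recorded. Cells were HEK expressing a truncated human Nav 1.8 and co-transduced with KIR2.1, and were assayed in 25% final human serum.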
# Sequence of human Nav 1.8 (Q9Y5Y9 126-399 limits assumed): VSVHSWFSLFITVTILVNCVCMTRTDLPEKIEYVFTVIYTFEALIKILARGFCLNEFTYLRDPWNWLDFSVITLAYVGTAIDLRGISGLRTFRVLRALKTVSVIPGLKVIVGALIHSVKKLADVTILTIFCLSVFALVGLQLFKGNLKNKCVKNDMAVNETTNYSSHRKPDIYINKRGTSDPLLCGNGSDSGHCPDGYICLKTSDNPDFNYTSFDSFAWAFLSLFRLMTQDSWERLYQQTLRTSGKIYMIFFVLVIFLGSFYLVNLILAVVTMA
# Sequence of human Nav 1.8 (Q9Y5Y9 660-890 limits assumed): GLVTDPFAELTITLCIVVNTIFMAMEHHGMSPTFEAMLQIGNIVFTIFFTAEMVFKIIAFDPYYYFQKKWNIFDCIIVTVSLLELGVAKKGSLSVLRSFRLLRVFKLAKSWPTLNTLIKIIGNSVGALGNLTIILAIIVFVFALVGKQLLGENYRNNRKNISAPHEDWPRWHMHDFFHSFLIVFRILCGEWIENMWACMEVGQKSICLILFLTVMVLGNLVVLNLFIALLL
# Sequence of human Nav 1.8 (Q9Y5Y9 1148-1722 limits assumed): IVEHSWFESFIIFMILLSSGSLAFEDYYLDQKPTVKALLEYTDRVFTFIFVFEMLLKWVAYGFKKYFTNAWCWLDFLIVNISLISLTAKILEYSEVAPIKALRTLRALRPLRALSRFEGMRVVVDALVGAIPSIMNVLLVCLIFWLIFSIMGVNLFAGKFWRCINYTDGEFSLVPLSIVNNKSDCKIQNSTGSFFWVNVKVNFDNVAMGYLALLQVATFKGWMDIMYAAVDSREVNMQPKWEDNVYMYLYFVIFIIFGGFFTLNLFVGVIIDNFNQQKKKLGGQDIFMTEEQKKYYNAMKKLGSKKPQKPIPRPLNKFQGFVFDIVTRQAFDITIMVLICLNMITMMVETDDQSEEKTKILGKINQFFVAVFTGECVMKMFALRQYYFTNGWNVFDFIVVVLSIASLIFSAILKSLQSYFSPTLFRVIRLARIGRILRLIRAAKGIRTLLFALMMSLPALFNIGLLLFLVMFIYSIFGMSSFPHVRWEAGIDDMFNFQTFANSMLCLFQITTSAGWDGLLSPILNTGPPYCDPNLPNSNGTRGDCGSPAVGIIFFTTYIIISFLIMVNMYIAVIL
row,SMILES,IC50 [nM]
1,"C[C@H]1[C@@H](c2ccc(F)c(F)c2OCCN[C@@H]2CCOC2)[C@H](C(=O)Nc2ccnc(C(N)=O)c2)O[C@@]1(C)C(F)(F)F [Compound 116, 4-((2R,3S,4S,5R)-3-(3,4-difluoro-2-(2-(((R)-tetrahydrofuran-3-yl)amino)ethoxy)phenyl)-4,5-dimethyl-5-(trifluoromethyl)tetrahydrofuran-2-carboxamido)picolinamide]",10 to 100
2,"C[C@H]1[C@@H](c2ccc(F)c(F)c2OCCN[C@H]2CCOC2)[C@H](C(=O)Nc2ccnc(C(N)=O)c2)O[C@@]1(C)C(F)(F)F [Compound 117, 4-((2R,3S,4S,5R)-3-(3,4-difluoro-2-(2-(((S)-tetrahydrofuran-3-yl)amino)ethoxy)phenyl)-4,5-dimethyl-5-(trifluoromethyl)tetrahydrofuran-2-carboxamido)picolinamide]",10 to 100
3,"C[C@H]1[C@@H](c2ccc(F)c(F)c2OCCNC2COC2)[C@H](C(=O)Nc2ccnc(C(N)=O)c2)O[C@@]1(C)C(F)(F)F [Compound 118, 4-((2R,3S,4S,5R)-3-(3,4-difluoro-2-(2-(oxetan-3-ylamino)ethoxy)phenyl)-4,5-dimethyl-5-(trifluoromethyl)tetrahydrofuran-2-carboxamido)picolinamide]",10 to 100
4,"C[C@H]1[C@@H](c2ccc(F)c(F)c2OCCN2CC(OC(F)F)C2)[C@H](C(=O)Nc2ccnc(C(N)=O)c2)O[C@@]1(C)C(F)(F)F [Compound 119, 4-((2R,3S,4S,5R)-3-(2-(2-(3-(difluoromethoxy)azetidin-1-yl)ethoxy)-3,4-difluorophenyl)-4,5-dimethyl-5-(trifluoromethyl)tetrahydrofuran-2-carboxamido)picolinamide]",< 10
5,"C[C@H]1[C@@H](c2ccc(F)c(F)c2OCCN2CC(C(F)F)C2)[C@H](C(=O)Nc2ccnc(C(N)=O)c2)O[C@@]1(C)C(F)(F)F [Compound 120, 4-((2R,3S,4S,5R)-3-(2-(2-(3-(difluoromethyl)azetidin-1-yl)ethoxy)-3,4-difluorophenyl)-4,5-dimethyl-5-(trifluoromethyl)tetrahydrofuran-2-carboxamido)picolinamide]",< 10
6,"C[C@H]1[C@@H](c2ccc(F)c(F)c2OCCN2CC(C)(F)C2)[C@H](C(=O)Nc2ccnc(C(N)=O)c2)O[C@@]1(C)C(F)(F)F [Compound 121, 4-((2R,3S,4S,5R)-3-(3,4-difluoro-2-(2-(3-fluoro-3-methylazetidin-1-yl)ethoxy)phenyl)-4,5-dimethyl-5-(trifluoromethyl)tetrahydrofuran-2-carboxamido)picolinamide]",< 10
7,"C[C@H]1[C@@H](c2ccc(F)c(F)c2OCCN2CC(C)(O)C2)[C@H](C(=O)Nc2ccnc(C(N)=O)c2)O[C@@]1(C)C(F)(F)F [Compound 122, 4-((2R,3S,4S,5R)-3-(3,4-difluoro-2-(2-(3-hydroxy-3-methylazetidin-1-yl)ethoxy)phenyl)-4,5-dimethyl-5-(trifluoromethyl)tetrahydrofuran-2-carboxamido)picolinamide]",10 to 100
8,"C[C@H]1[C@@H](c2ccc(F)c(F)c2OCCN2CC3(CCOC3)C2)[C@H](C(=O)Nc2ccnc(C(=O)N3CC4(CCOC4)C3)c2)O[C@@]1(C)C(F)(F)F [Compound 123, (2R,3S,4S,5R)-3-(2-(2-(6-oxa-2-azaspiro[3.4]octan-2-yl)ethoxy)-3,4-difluorophenyl)-N-(2-(6-oxa-2-azaspiro[3.4]octane-2-carbonyl)pyridin-4-yl)-4,5-dimethyl-5-(trifluoromethyl)tetrahydrofuran-2-carboxamide]",≥ 1000
9,"C[C@H]1[C@@H](c2ccc(F)c(F)c2OCCN2CC3CCC2CO3)[C@H](C(=O)Nc2ccnc(C(N)=O)c2)O[C@@]1(C)C(F)(F)F (stereo partly drawn) [Compound 124, 4-((2R,3S,4S,5R)-3-(2-(2-(2-oxa-5-azabicyclo[2.2.2]octan-5-yl)ethoxy)-3,4-difluorophenyl)-4,5-dimethyl-5-(trifluoromethyl)tetrahydrofuran-2-carboxamido)picolinamide]",< 10
10,"C[C@H]1[C@@H](c2ccc(F)c(F)c2OCCN2CCC23COC3)[C@H](C(=O)Nc2ccnc(C(N)=O)c2)O[C@@]1(C)C(F)(F)F [Compound 125, 4-((2R,3S,4S,5R)-3-(2-(2-(6-oxa-1-azaspiro[3.3]heptan-1-yl)ethoxy)-3,4-difluorophenyl)-4,5-dimethyl-5-(trifluoromethyl)tetrahydrofuran-2-carboxamido)picolinamide]",< 10
11,"C[C@H]1[C@@H](c2ccc(F)c(F)c2OCCN2CC3(CCOC3)C2)[C@H](C(=O)Nc2ccnc(C(N)=O)c2)O[C@@]1(C)C(F)(F)F [Compound 126, 4-((2R,3S,4S,5R)-3-(2-(2-(6-oxa-2-azaspiro[3.4]octan-2-yl)ethoxy)-3,4-difluorophenyl)-4,5-dimethyl-5-(trifluoromethyl)tetrahydrofuran-2-carboxamido)picolinamide]",10 to 100
12,"C[C@H]1[C@@H](c2ccc(F)c(F)c2OCCN2CCC3(COC3)C2)[C@H](C(=O)Nc2ccnc(C(N)=O)c2)O[C@@]1(C)C(F)(F)F [Compound 127, 4-((2R,3S,4S,5R)-3-(2-(2-(2-oxa-6-azaspiro[3.4]octan-6-yl)ethoxy)-3,4-difluorophenyl)-4,5-dimethyl-5-(trifluoromethyl)tetrahydrofuran-2-carboxamido)picolinamide]",< 10
13,"CO[C@@H]1CCN(CCOc2c([C@H]3[C@H](C(=O)Nc4ccnc(C(N)=O)c4)O[C@@](C)(C(F)(F)F)[C@H]3C)ccc(F)c2F)C1 [Compound 128, 4-((2R,3S,4S,5R)-3-(3,4-difluoro-2-(2-((R)-3-methoxypyrrolidin-1-yl)ethoxy)phenyl)-4,5-dimethyl-5-(trifluoromethyl)tetrahydrofuran-2-carboxamido)picolinamide]",10 to 100
14,"CO[C@H]1CCN(CCOc2c([C@H]3[C@H](C(=O)Nc4ccnc(C(N)=O)c4)O[C@@](C)(C(F)(F)F)[C@H]3C)ccc(F)c2F)C1 [Compound 129, 4-((2R,3S,4S,5R)-3-(3,4-difluoro-2-(2-((S)-3-methoxypyrrolidin-1-yl)ethoxy)phenyl)-4,5-dimethyl-5-(trifluoromethyl)tetrahydrofuran-2-carboxamido)picolinamide]",10 to 100
15,"C[C@H]1[C@@H](c2ccc(F)c(F)c2OCCN2C3COCC2C3)[C@H](C(=O)Nc2ccnc(C(N)=O)c2)O[C@@]1(C)C(F)(F)F [Compound 131, 4-((2R,3S,4S,5R)-3-(2-(2-(3-oxa-6-azabicyclo[3.1.1]heptan-6-yl)ethoxy)-3,4-difluorophenyl)-4,5-dimethyl-5-(trifluoromethyl)tetrahydrofuran-2-carboxamido)picolinamide]",10 to 100

# Now from value to compound:
row,IC50 [nM],SMILES
1,< 10,"C[C@H]1[C@@H](c2ccc(F)c(F)c2OCCN=S(C)(C)=O)[C@H](C(=O)Nc2ccnc(C(N)=O)c2)O[C@@]1(C)C(F)(F)F [Compound 130, 4-((2R,3S,4S,5R)-3-(2-(2-((dimethyl(oxo)-26-sulfaneylidene)amino)ethoxy)-3,4-difluorophenyl)-4,5-dimethyl-5-(trifluoromethyl)tetrahydrofuran-2-carboxamido)picolinamide]"
2,< 10,C=C(CO)COc1c([C@H]2[C@H](C(=O)Nc3ccnc(C(N)=O)c3)O[C@@](C)(C(F)(F)F)[C@H]2C)ccc(F)c1F [Compound 132]
3,< 10,"C[C@H]1[C@@H](c2ccc(F)c(F)c2OCCCN2CC(F)C2)[C@H](C(=O)Nc2ccnc(C(N)=O)c2)O[C@@]1(C)C(F)(F)F [Compound 133, 4-((2R,3S,4S,5R)-3-(3,4-difluoro-2-(3-(3-fluoroazetidin-1-yl)propoxy)phenyl)-4,5-dimethyl-5-(trifluoromethyl)tetrahydrofuran-2-carboxamido)picolinamide]"
4,10 to 100,"C[C@H]1[C@@H](c2ccc(F)c(F)c2OCCCN2CCC2)[C@H](C(=O)Nc2ccnc(C(N)=O)c2)O[C@@]1(C)C(F)(F)F [Compound 134, 4-((2R,3S,4S,5R)-3-(2-(3-(azetidin-1-yl)propoxy)-3,4-difluorophenyl)-4,5-dimethyl-5-(trifluoromethyl)tetrahydrofuran-2-carboxamido)picolinamide]"
5,10 to 100,C=C(COC)COc1c([C@H]2[C@H](C(=O)Nc3ccnc(C(N)=O)c3)O[C@@](C)(C(F)(F)F)[C@H]2C)ccc(F)c1F [Compound 135]
6,10 to 100,"CNC(=O)c1cc(NC(=O)[C@@H]2O[C@@](C)(C(F)(F)F)[C@@H](C)[C@H]2c2ccc(F)c(F)c2OCCN2CC3(COC3)C2)ccn1 [Compound 136, 4-((2R,3S,4S,5R)-3-(2-(2-(2-oxa-6-azaspiro[3.3]heptan-6-yl)ethoxy)-3,4-difluorophenyl)-4,5-dimethyl-5-(trifluoromethyl)tetrahydrofuran-2-carboxamido)-N-methylpicolinamide]"
7,10 to 100,"C[C@@H](O)COc1c([C@H]2[C@H](C(=O)Nc3ccnc(C(N)=O)c3)O[C@@](C)(C(F)(F)F)[C@H]2C)ccc(F)c1F [Compound 152, 4-((2R,3S,4S,5R)-3-(3,4-difluoro-2-((R)-2-hydroxypropoxy)phenyl)-4,5-dimethyl-5-(trifluoromethyl)tetrahydrofuran-2-carboxamido) picolinamide]"
8,< 10,C[C@H](O)COc1c([C@H]2[C@H](C(=O)Nc3ccnc(C(N)=O)c3)O[C@@](C)(C(F)(F)F)[C@H]2C)ccc(F)c1F [Compound 153]
9,< 10,"COc1c(Cl)cc([C@H]2[C@H](C(=O)Nc3ccnc(C(N)=O)c3)O[C@@](C)(C(F)(F)F)[C@H]2C)c(OC)c1F [Compound 154, 4-((2R,3S,4S,5R)-3-(5-chloro-3-fluoro-2,4-dimethoxyphenyl)-4,5-dimethyl-5-(trifluoromethyl)tetrahydrofuran-2-carboxamido) picolinamide]"
10,10 to 100,"COCC(CO)COc1c([C@H]2[C@H](C(=O)Nc3ccnc(C(N)=O)c3)O[C@@](C)(C(F)(F)F)[C@H]2C)ccc(F)c1F (stereo partly drawn) [Compound 155, 4-((2R,3S,4S,5R)-3-(3,4-difluoro-2-(3-hydroxy-2-(methoxymethyl)propoxy)phenyl)-4,5-dimethyl-5-(trifluoromethyl)tetrahydrofuran-2-carboxamido) picolinamide]"
